pIC50: −log10 of the molar value. Read-outs that look alike come from different tables or passages of the source. Square brackets hold non-standard residues; d marks the D form. Ends that are not written are not given here. Peptide text beside a SMILES is read from it. hTyr = N[C@@H](CCc1ccc(O)cc1)C(=O)O
Key:
[1] = test system: SARS-CoV-2 clinical isolate SARS-CoV-2/PSL2020 in Calu-3 cells; conditions: clinical isolate /PSL2020 in Calu-3 cells, 48 h
[2] = Helical content by circular dichroism; type: physicochemical; conditions: 60 µM peptide, 50 mM sodium phosphate buffer pH 7.4, 25 °C, DichroWeb CDSSTR deconvolution
Description: The conformation of synthesized peptides in aqueous solution was investigated by circular dichroism (CD) spectroscopy. […] The deconvolution of the CD spectra using DichroWeb[25] allowed us to estimate the helical population for each peptide, which is reported in Table 1. Overall, an excellent agreement was observed between the Agadir-computed values and the experimental helical population inferred from CD data. […] The introduction of a proline residue in peptide P5 has a strong destabilizing effect on helical conformation (17%) whereas Leu/hTyr substitution only led to a slight decrease of the helical content (P7 versus P6 and P10 versus P8).
Fig. 2 Far-UV CD spectra of synthesized peptides. […] CD measurements are reported as molar ellipticity per residue.
CD spectra were recorded on a Jasco J-815 CD spectropolarimeter equipped with a Peltier temperature controller. Data were obtained at 25 °C over a wavelength range between 185 nm and 270 nm, using a wavelength interval of 0.2 nm and a scan rate of 20 nm min^−1. Peptide samples were prepared at a concentration of 60 µM in 50 mM sodium phosphate buffer, pH 7.4, in a quartz cell of 1 mm path length. CD experiments were processed and plotted with R program. CD spectra were analyzed using DICHROWEB web server and CDSSTR deconvolution algorithm.

[3] = HPLC retention time (LC-MS method B); type: physicochemical; conditions: method B: X-Select CSH C18 XP, 0.1% formic acid water/acetonitrile, 5-100% B in 3.2 min, 1.8 mL min^−1, 40 °C; used as indicator of hydrophobicity
[4] = Solubility (qualitative); type: physicochemical; conditions: qualitative statement
[5] = test system: SARS-CoV-2 clinical isolate SARS-CoV-2/PSL2020 in Vero-E6 cells
[6] = test system: SARS-CoV-2 clinical isolate SARS-CoV-2/PSL2020 in Calu-3 cells; type: cell-based
[7] = test system: Vero-E6 cells; conditions: 10 µM
[8] = biological target: SARS-CoV-2 spike RBD (Fc-tagged 2019-nCoV RBD-SD1) (Severe acute respiratory syndrome coronavirus 2, UniProt P0DTC2); test: biochemical; type: binding; conditions: for kon: read-out: ka, association constant; for koff: read-out: kdis, dissociation constant
[9] = test system: Calu-3 cells; conditions: 10 μM (150 times the IC50); MTT and annexin-V/PI, 24, 48 or 72 h (Fig. 3f)
[10] = test system: Calu-3 cells
[11] = test system: Vero-E6 cells
[12] = clinical isolate /PSL2020 in Vero-E6 cells, 48 h, 10 µM
[13] = BLI EXP1, sample conc. ACE2 10 nM, P8 100 nM, P9 and P10 1000 nM
[14] = BLI EXP2, sample conc. ACE2 100 nM, P8 1000 nM, P9 and P10 1111 nM

Compound: CC(C)C[C@H](NC(=O)[C@H](C)NC(=O)[C@H](CC(C)C)NC(=O)[C@H](C)NC(=O)[C@H](CC(C)C)NC(=O)[C@H](CCC(N)=O)NC(=O)[C@H](Cc1ccc(O)cc1)NC(=O)[C@H](CC(C)C)NC(=O)[C@H](CC(C)C)NC(=O)[C@H](CC(=O)O)NC(=O)[C@H](CCC(=O)O)NC(=O)[C@H](CC(C)C)NC(=O)[C@H](CCC(=O)O)NC(=O)[C@H](Cc1c[nH]cn1)NC(=O)[C@H](CC(C)C)NC(=O)[C@H](Cc1ccccc1)NC(=O)[C@H](CCCCN)NC(=O)[C@H](CC(=O)O)NC(=O)[C@H](CC(C)C)NC(=O)[C@H](Cc1ccccc1)NC(=O)[C@@H](NC(=O)[C@H](CCCCN)NC(=O)[C@H](CCc1ccc(O)cc1)NC(=O)[C@H](CCC(N)=O)NC(=O)[C@H](CCC(=O)O)NC(=O)[C@H](CCC(=O)O)NC(=O)[C@H](CC(C)C)NC(=O)[C@H](C)NC(=O)[C@@H](N)CO)[C@@H](C)O)C(N)=O [P7] (H-SALEEQ[hTyr]KTFLDKFLHELEDLLYQLALAL-NH2)
- pIC50 [1]: < 6.00
- Experimental helical content% [2]: 63%
- RT, HPLC retention time [3]: 2,57 min
- solubility [4]: slight increase in solubility
- % Inhibition of SARSCoV-2 replication at 10 μM ([5]; […], mean of at least three independent experiments): 54%
- % Inhibition, Moyenne [5, 12]: 53.7%
- % Inhibition, Q2 (Median) [5, 12]: 43.4%

Compound: SALEEQLKTFLDKFMHELEDLLYQLAL-NH2 [P8]
- pIC50 [1]: 7.34
- Experimental helical content% [2]: 70%
- SARSCoV-2 virus titer at 1 μM (PFU mL^−1) on Calu-3 [6]: 0 PFU mL^−1
- Cell death (AnnV+PI) ([7]; 24 h, EXP1, flow cytometry): 3.74%
- Cell death (AnnV+PI) ([7]; 24 h, EXP2, flow cytometry): 3.24%
- Cell death (AnnV+PI) ([7]; 24 h, EXP3, flow cytometry): 5%
- Cell death (AnnV+PI) ([7]; 48 h, EXP1, flow cytometry): 5.63%
- Cell death (AnnV+PI) ([7]; 48 h, EXP2, flow cytometry): 4.63%
- Cell death (AnnV+PI) ([7]; 48 h, EXP3, flow cytometry): 4.26%
- Cell death (AnnV+PI) ([7]; 72 h, EXP1, flow cytometry): 4%
- Cell death (AnnV+PI) ([7]; 72 h, EXP2, flow cytometry): 3%
- Cell death (AnnV+PI) ([7]; 72 h, EXP3, flow cytometry): 3.48%
- kon [8, 13]: 5610 M⁻¹ s⁻¹
- koff [8, 13]: 8.94e-05 s⁻¹
- kon [8, 14]: 4310 M⁻¹ s⁻¹
- koff [8, 14]: 0.000137 s⁻¹
- cytotoxicity in uninfected Calu-3 cells [9]: no cytotoxicity
- Cell death (AnnV+PI) ([10]; EXP1, peptide 10 µM, 24 h (0 µM: 16%)): 23%
- Cell death (AnnV+PI) ([10]; EXP1, peptide 10 µM, 48 h (0 µM: 18%)): 20%
- Cell death (AnnV+PI) ([10]; EXP1, peptide 10 µM, 72 h (0 µM: 23%)): 18%
- Cell death (AnnV+PI) ([10]; EXP2, peptide 10 µM, 24 h (0 µM: 13%)): 16%
- Cell death (AnnV+PI) ([10]; EXP2, peptide 10 µM, 48 h (0 µM: 17%)): 19%
- Cell death (AnnV+PI) ([10]; EXP2, peptide 10 µM, 72 h (0 µM: 20%)): 22%
- Cell death (AnnV+PI) ([10]; EXP3, peptide 10 µM, 24 h (Vehicle: 15%)): 23%
- Cell death (AnnV+PI) ([10]; EXP3, peptide 10 µM, 48 h (Vehicle: 18%)): 20%
- Cell death (AnnV+PI) ([10]; EXP3, peptide 10 µM, 72 h (Vehicle: 22%)): 18%
- RT, HPLC retention time [3]: 2,45 min
- solubility [4]: highly soluble
- Cell viability (MTT) ([11]; 72 h, 0.1 µM): 98%
- toxicity in Vero-E6 ([11]; MTT 0.1-10 µM and annexin-V/PI 10 µM, 24, 48 or 72 h (Fig. 3c)): devoid of toxicity

Reference: publication PMC7881012, “Human ACE2 peptide-mimics block SARS-CoV-2 pulmonary cells infection” (Communications Biology, 2021)
